Laboratory results as given in US4169096A, “Antibiotic compounds” (priority 1977, dated 1979).
≈ marks a conversion by molar mass, not a printed value. Like-named read-outs stand apart in the source and are kept apart here.

Legend:
C. perfringens A9635 [1] = test: animal or person; type: in vivo, mice; settings: Clostridium perfringens, A9635, in Mus musculus, 120 h, read-out: PD50
[2] = tested on: Bacteroides fragilis A20930; test: microbe, parasite or virus in culture
[3] = tested on: Peptocuccus prevotii ATCC 9321; test: microbe, parasite or virus in culture
C. perfringens A9635 [4] = test: microbe, parasite or virus in culture; type: cell-based; settings: Clostridium perfringens, A9635, 18 h
[5] = tested on: Klebsiella pneumoniae A9678; test: MIC, serial two-fold agar dilution, aerobic bacteria; type: cell-based
[6] = tested on: Serratia marcescens A20019; test: as above; type: cell-based
Proteus morganii A9553 = test: as above; type: cell-based; settings: Morganella morganii, Nutrient agar (Eiken)
[7] = tested on: Peptostreptococcus anaerobius B43; type: cell-based; settings: GAM agar medium (Nissui)
[8] = tested on: Pseudomonas aeruginosa A9843; test: MIC, serial two-fold agar dilution, aerobic bacteria; type: cell-based; settings: test medium not given
S. pyogenes A20201 [9] = test: Systemic infection with S. pyogenes in mice; type: in vivo; settings: Streptococcus pyogenes, A20201, 120 h, just before challenge, determined after 5 days, read-out: PD50
[10] = tested on: Fusobacterium varium ATCC 8501; test: microbe, parasite or virus in culture; settings: ATCC8501
S. pyogenes A20201 [11] = test: Bactericidal activity (MIC & MBC); type: cell-based; settings: Streptococcus pyogenes
[12] = tested on: Neisseria meningitidis A20049; test: MIC, serial two-fold agar dilution, aerobic bacteria; type: cell-based
[13] = tested on: Neisseria gonorrhoeae A20154; test: as above; type: cell-based; settings: GC medium (Eiken)
[14] = tested on: Bacteroides fragilis A20932; test: microbe, parasite or virus in culture
[15] = tested on: Peptococcus aerogenes ATCC 14963; test: microbe, parasite or virus in culture; settings: Peptoniphilus asaccharolyticus, ATCC14963
[16] = tested on: Clostridium caproicum IAM 19228; test: microbe, parasite or virus in culture; settings: IAM19228
[17] = tested on: Bacteroides fragilis A20929; test: microbe, parasite or virus in culture
[18] = tested on: C. perfringens or S. pyrogenes; type: in vivo, mice; settings: mouse, in vivo
[19] = tested on: Neisseria gonorrhoeae A15112; test: MIC, serial two-fold agar dilution, aerobic bacteria; type: cell-based; settings: GC medium (Eiken)
[20] = tested on: Veillonella parvula ATCC 17745; test: microbe, parasite or virus in culture; settings: ATCC17745
B. fragilis A20926 = test: Localized infection with B. fragilis in mice; type: in vivo; settings: for mean score: control 4.2; for sum of score: control 21; for infectivity level: control 100%
[21] = tested on: Bacillus subtilis PCI-219; test: MIC, serial two-fold agar dilution, aerobic bacteria; type: cell-based
[22] = tested on: Staphylococcus aureus #52-34; test: as above; type: cell-based; settings: Nutrient agar (Eiken), read-out: MIC
Proteus mirabilis A9554 = test: as above; type: cell-based; settings: Nutrient agar (Eiken)
B. fragilis A20928-1 [23] = test: Bactericidal activity (MIC & MBC); type: cell-based; settings: Bacteroides fragilis, A209281, inoculum size 2.8 × 10^6 cell/ml; for MIC: broth
[24] = tested on: Staphylococcus aereus Smith; test: MIC, serial two-fold agar dilution, aerobic bacteria; type: cell-based; settings: Nutrient agar (Eiken), read-out: MIC
[25] = tested on: Fusobacterium mortiferum ATCC 9817; test: microbe, parasite or virus in culture; settings: ATCC9817
[26] = tested on: Acidoaminococcus fermentans ATCC 25085; test: microbe, parasite or virus in culture
[27] = tested on: Sphaerophorus pseudonecrophorus A20013; test: microbe, parasite or virus in culture; settings: Fusobacterium necrophorum
C. perfringens A9635 [28] = test: microbe, parasite or virus in culture; type: cell-based, Clostridium perfringens; settings: for MIC in GAM agar: inoculum size 7 × 10^6 cell/ml
[29] = tested on: Staphylococcus aureus 209P; test: MIC, serial two-fold agar dilution, aerobic bacteria; type: cell-based; settings: Nutrient agar (Eiken)
[30] = tested on: Hemophilus influenzae A20188; test: as above; type: cell-based; settings: Haemophilus influenzae, GC medium (Eiken)
Sarcina lutea PCI-1001 = test: as above; type: cell-based; settings: Micrococcus luteus, PCI1001; Nutrient agar (Eiken); read-out: MIC
Micrococcus flavus = test: as above; type: cell-based; settings: Nutrient agar (Eiken), read-out: MIC
[31] = tested on: Neisseria meningitidis A21496; test: as above; type: cell-based; settings: GC medium (Eiken)
B. fragilis A20928-1 [32] = test: Inoculum size effect on MIC, GAM broth; type: cell-based; settings: Bacteroides fragilis, A209281, read-out: MIC in GAM broth, inoculum size […] 10^6 cell/ml
[33] = tested on: Streptococcus pyogenes A20201; test: MIC, serial two-fold agar dilution, aerobic bacteria; type: cell-based; settings: GC medium (Eiken)
[34] = tested on: Escherichia coli Juhl A15119; test: as above; type: cell-based; settings: JUHLA15119, Nutrient agar (Eiken), read-out: MIC
bacterial RNA polymerase = settings: Antimicrobial Agents and Chemotherapy 1976, page 618; cited from earlier work
[35] = tested on: Streptococcus pyogenes A9604; test: MIC, serial two-fold agar dilution, aerobic bacteria; type: cell-based; settings: GC medium (Eiken)
[36] = tested on: Escherichia coli K-12 A9632; test: as above; settings: K12A9632
C. perfringens A9635 [37] = test: microbe, parasite or virus in culture; type: cell-based; settings: Clostridium perfringens, A9635, read-out: MIC in GAM broth, inoculum size […] 10^6 cell/ml
[38] = Nutrient agar (Eiken), read-out: MIC

CCC[C@@H]1C[C@@H](C(=O)N[C@@H]([C@H]2O[C@H](SC)[C@H](O)[C@@H](O)[C@H]2O)[C@H](C)Cl)N(C)C1 [Clindamycin]
ED50 (C. perfringens A9635 [1]; po): 0.22 mg/kg | ED50 (C. perfringens A9635 [1]; sc): 0.08 mg/kg | MIC [2]: 0.05 µg/mL (≈ 0.118 µM) | MIC [3]: 0.1 µg/mL (≈ 0.235 µM) | MBC (C. perfringens A9635 [4]): 0.05 µg/mL (≈ 0.118 µM) | MIC [5]: 100 µg/mL (≈ 235 µM) | MIC [6]: 50 µg/mL (≈ 118 µM) | MIC (Proteus morganii A9553): 100 µg/mL (≈ 235 µM) | MIC [7]: 0.8 µg/mL (≈ 1.88 µM) | MIC [8]: > 100 µg/mL | ED50 (S. pyogenes A20201 [9]; po, NA: no activity): 2.1 mg/kg | ED50 (S. pyogenes A20201 [9]; sc): 0.3 mg/kg | MIC [10]: 0.05 µg/mL (≈ 0.118 µM) | MIC (S. pyogenes A20201 [11]; A20201, inoculum size 6 × 10^5 cell/ml, broth): 0.05 µg/mL (≈ 0.118 µM) | MBC (S. pyogenes A20201 [11]; A20201, inoculum size 6 × 10^5 cell/ml, growth of less than 100 colonies per plate, 18 hours at 37° C., read-out: MBC): 6.3 µg/mL (≈ 14.8 µM) | MIC [12]: 0.05 µg/mL (≈ 0.118 µM) | MIC [13]: 0.2 µg/mL (≈ 0.471 µM) | MIC [14]: 0.05 µg/mL (≈ 0.118 µM) | MIC [15]: 0.2 µg/mL (≈ 0.471 µM) | MIC [16]: 0.1 µg/mL (≈ 0.235 µM) | MIC [17]: 0.05 µg/mL (≈ 0.118 µM) | comparative in vivo activity [18]: the most active | MIC [19]: 0.2 µg/mL (≈ 0.471 µM) | MIC [20]: 0.05 µg/mL (≈ 0.118 µM) | comparative in vivo activity (B. fragilis A20926; B. fragilis localized infection): more active than Bu-2313B or Flagyl | mean score (B. fragilis A20926; oral, 6.3 × 5 mg/kg): 2.6 | sum of score (B. fragilis A20926; oral, 6.3 × 5 mg/kg): 13 | infectivity level (B. fragilis A20926; oral, 6.3 × 5 mg/kg): 61.9% | mean score (B. fragilis A20926; oral, 25 × 5 mg/kg): 1.8 | sum of score (B. fragilis A20926; oral, 25 × 5 mg/kg): 9 | infectivity level (B. fragilis A20926; oral, 25 × 5 mg/kg): 42.9% | sum of score (B. fragilis A20926; oral, 100 × 5 mg/kg): 2 | infectivity level (B. fragilis A20926; oral, 100 × 5 mg/kg): 9.5% | mean score (B. fragilis A20926; oral, […] 5 mg/kg): 4.0 | sum of score (B. fragilis A20926; oral, […] 5 mg/kg): 20 | infectivity level (B. fragilis A20926; oral, […] 5 mg/kg): 95.2% | mean score (B. fragilis A20926; subcutaneous, 0.8 × 5 mg/kg): 4.0 | sum of score (B. fragilis A20926; subcutaneous, 0.8 × 5 mg/kg): 20 | infectivity level (B. fragilis A20926; subcutaneous, 0.8 × 5 mg/kg): 95.2% | mean score (B. fragilis A20926; subcutaneous, 3.1 × 5 mg/kg): 2.0 | sum of score (B. fragilis A20926; subcutaneous, 3.1 × 5 mg/kg): 10 | infectivity level (B. fragilis A20926; subcutaneous, 3.1 × 5 mg/kg): 47.6% | mean score (B. fragilis A20926; subcutaneous, 50 × 5 mg/kg): 0.8 | sum of score (B. fragilis A20926; subcutaneous, 50 × 5 mg/kg): 4 | infectivity level (B. fragilis A20926; subcutaneous, 50 × 5 mg/kg): 19.0% | mean score (B. fragilis A20926; subcutaneous, […] 5 mg/kg): 1.4 | sum of score (B. fragilis A20926; subcutaneous, […] 5 mg/kg): 7 | infectivity level (B. fragilis A20926; subcutaneous, […] 5 mg/kg): 33.3% | MIC ([21]; PCI219, Nutrient agar (Eiken), read-out: MIC): 0.8 µg/mL (≈ 1.88 µM) | MIC [22]: 0.1 µg/mL (≈ 0.235 µM) | MIC (Proteus mirabilis A9554): 100 µg/mL (≈ 235 µM) | MIC (B. fragilis A20928-1 [23]): 0.05 µg/mL (≈ 0.118 µM) | MIC [24]: 0.1 µg/mL (≈ 0.235 µM) | MIC [25]: 0.05 µg/mL (≈ 0.118 µM) | MIC [26]: 0.05 µg/mL (≈ 0.118 µM) | MIC [27]: 0.05 µg/mL (≈ 0.118 µM) | MIC in GAM agar (C. perfringens A9635 [28]): 0.0125 µg/mL (≈ 0.0294 µM) | MIC [29]: 0.1 µg/mL (≈ 0.235 µM) | MIC [30]: 0.8 µg/mL (≈ 1.88 µM)

CC(/C=C/C(=O)C1=C(O)CNC1=O)=C\C(C)C1OC2(C)OC(C(=O)C3OC32C)C1C (stereo not drawn) [Tirandamycin, reference compound]
ED50 (C. perfringens A9635 [1]; po): 60 mg/kg | ED50 (C. perfringens A9635 [1]; sc): 17 mg/kg | MIC (Sarcina lutea PCI-1001): 50 µg/mL (≈ 120 µM) | MBC (C. perfringens A9635 [4]): 3.1 µg/mL (≈ 7.43 µM) | MIC [5, 38]: > 100 µg/mL | MIC [6, 38]: > 100 µg/mL | MIC (Proteus morganii A9553): > 100 µg/mL | MIC [8]: > 100 µg/mL | MIC (Micrococcus flavus): 25 µg/mL (≈ 59.9 µM) | MIC [31]: 0.8 µg/mL (≈ 1.92 µM) | ED50 (S. pyogenes A20201 [9]; po, NA: no activity): 50 mg/kg | ED50 (S. pyogenes A20201 [9]; sc): 9.7 mg/kg | MIC (B. fragilis A20928-1 [32]): 6 ng/mL (≈ 0.0144 µM) | MBC (S. pyogenes A20201 [11]; A20201, 18 h): > 12.5 µg/mL | MIC ([12]; GC medium (Eiken), read-out: MIC): 0.8 µg/mL (≈ 1.92 µM) | MIC [33]: 0.8 µg/mL (≈ 1.92 µM) | MIC [34]: > 100 µg/mL | inhibition of bacterial RNA polymerase (bacterial RNA polymerase): inhibitor of bacterial RNA polymerase in a manner similar to streptolydigin | MIC [35]: 0.8 µg/mL (≈ 1.92 µM) | MIC ([21]; PCI219): 3.1 µg/mL (≈ 7.43 µM) | MIC [22]: 50 µg/mL (≈ 120 µM) | MIC (Proteus mirabilis A9554): > 100 µg/mL | MIC [36]: > 100 µg/mL | MIC (B. fragilis A20928-1 [23]): 0.025 µg/mL (≈ 0.0599 µM) | MBC (B. fragilis A20928-1 [23]; growth of less than 100 colonies per plate, 18 hours at 37° C.): > 0.8 µg/mL | MIC (C. perfringens A9635 [37]): 12.5 µg/mL (≈ 29.9 µM) | MIC [24]: > 100 µg/mL | MIC (C. perfringens A9635 [28]; Clostridium perfringens, A9635, read-out: MIC in GAM agar): 0.8 µg/mL (≈ 1.92 µM) | MIC in GAM agar (C. perfringens A9635 [28]): 0.8 µg/mL (≈ 1.92 µM) | MIC [29]: 100 µg/mL (≈ 240 µM) | MIC [30]: 0.8 µg/mL (≈ 1.92 µM)
